Several values for one entry are separate records, joined by “and”; a condition that tells them apart may be missing. Equal entries are not always repeated. Entries after “also recorded” stand apart in the source; their conditions may differ.
What was measured:
[1] = tested on: chronic hypoxic-pulmonary artery hypertension (CH-PAH); experiment: Mean pulmonary arterial pressure (PAP) in chronic hypoxic (CH-PAH) rat model; format: in vivo; details: for reversal of PA hypertension: in contrast to testosterone, estradiol, pregnenolone, protocol not restated; for effect on PAP, i.v. administration: 3 mg/kg, same intravascular protocol as for DHEA, CH-DHEA rats (so in the source)
Method: To study the mechanisms of PAH and its possible treatments, an animal model was utilized. The placement of rats in a hypobaric chamber for 7 to 21 days induced chronic hypoxia, resulting in CH-PAH, a useful model system for studying mammalian PAH.
The rat model experiments were performed as follows. Adult male Wistar rats (220-240 g) were randomized into five groups. […] Intravascular administration was performed via the catheter inserted in the right jugular vein.

PASMCs from CH rats = experiment: In vitro DHEA treatment of PASMCs, resting [Ca2+]i, with K channel blockers and pathway inhibitors; format: cell-based, rat; details: for effect on the DHEA-induced [Ca2+]i decrease: DHEA plus blocker/inhibitor: IbTx, agitoxin-2, ODQ 10 μM, genistein 1 μM, 476485 1 μM, DTT
Method: The heart and lungs were removed and intrapulmonary arteries (IPAs) (150-300 μm of internal diameter) were then dissected. The adventitial and intimal layers were removed. For contraction experiments, rings (3 mm in length) were prepared.
As mentioned earlier, Ca^2+ is thought to play an important role in the response to chronic hypoxia. To measure the effects of DHEA on [Ca^2+]i of individual PASMCs, a [Ca^2+]i-sensitive fluorophore, indo-1 (Calbiochem, San Diego, Calif.), was employed. […] The recording system included a Nikon Diaphot inverted microscope fitted with epifluorescence.
To further examine how DHEA functions to decrease the [Ca^2+]i in PASMCs, the following experiment was performed.

C[C@]12CC[C@H](O)C[C@@H]1CC[C@@H]1[C@@H]2CC[C@]2(C)C(=O)CC[C@@H]12 [3β-hydroxy-5α-androstan-17-one]
reversal of PA hypertension [1]: did reverse PA hypertension

C[C@H]1CC[C@@]2(C)C(=CC[C@@H]3[C@@H]2CC[C@]2(C)C(=O)CC[C@@H]32)C1 [3βmethyl-5-androsten-17-one]
reversal of PA hypertension [1]: did reverse PA hypertension

Nc1ccncc1 [4-AP, 4-amino-pyridine]
block of the DHEA-induced [Ca2+]i decrease (PASMCs from CH rats; combined IbTx 100 nM and 4-AP 1 mM): 100%
effect on the DHEA effect on resting [Ca2+]i (PASMCs from CH rats; combined presence of 4-AP and IbTx): almost totally abolished

C[C@]12CC[C@H]3[C@@H](CC=C4C[C@@H](O)CC[C@@]43C)[C@@H]1CC[C@@H]2O [5-androsten-3β,17β-diol]
reversal of PA hypertension [1]: did reverse PA hypertension

O[C@@H](CS)[C@@H](O)CS [DTT]
effect on the DHEA-induced [Ca2+]i decrease (PASMCs from CH rats): totally inhibited; also recorded: suppressed; also recorded: inhibits the effect of DHEA
elevation of the resting [Ca2+]i (PASMCs from CH rats; DTT with DHEA, PASMCs): 23 nM

O=c1onc2cnc3ccccc3n12 [ODQ, 1H-[1,2,4]oxadiazolol[4,3,-a]quinoxalin-1-one]
effect on the DHEA-induced [Ca2+]i decrease (PASMCs from CH rats): did not alter; also recorded: no effect

O=c1c(-c2ccc(O)cc2)coc2cc(O)cc(O)c12 [genistein, Genistein]
effect on the DHEA-induced [Ca2+]i decrease (PASMCs from CH rats): did not alter; also recorded: no effect

CC(=O)[C@H]1CC[C@H]2[C@@H]3CC=C4C[C@@H](O)CC[C@]4(C)[C@H]3CC[C@]12C [pregnenolone]
effect on PAP, i.v. administration [1]: did not reveal any effect

C[C@]12CC[C@H]3[C@@H](CCC4=CC(=O)CC[C@@]43C)[C@@H]1CC[C@@H]2O [testosterone]
effect on PAP, i.v. administration [1]: did not reveal any effect

agitoxin-2
effect on the DHEA-induced [Ca2+]i decrease (PASMCs from CH rats): no effect

iberiotoxin (QFTDVDCSVSKECWSVCKDLFGVDRGKCMGKKCRCYQ; UniProt P24663 1-37, looked up) [IbTx]
inhibition of the DHEA-induced change of resting [Ca2+]i (PASMCs from CH rats; DHEA 100 μM and IbTx 100 nM, 10 min, PASMCs from CH rats): 62% and 65%
effect on the DHEA-induced [Ca2+]i decrease (PASMCs from CH rats): blocked
